Measurements published in patent US20230055961A1, “PENTAFLUOROBENZENESULFONAMIDE DERIVATIVES AND USES THEREOF” (Dunad Therapeutics Ltd., priority 2019, published 2023).
Each block holds one molecule with its values, some of them ahead of it.

Tests used:
[1] = system: MV-4-11; experiment: In vitro IC50 against human cancer cells (Table 11), MV-4-11; type: cell-based; details: MV4-11, read-out: Human cancer cell lines (IC50, μM) MV-4-11
[2] = system: MOLM-13; experiment: In vitro IC50 against human cancer cells (Table 11), MOLM-13; type: cell-based; details: read-out: Human cancer cell lines (IC50, μM) MOLM-13
[3] = molecular target: T1, BMX (Homo sapiens, UniProt P51813); experiment: In vitro kinase inhibition studies (Table 9), BMX; type: biochemical
T1 sequence (P51813 1-675): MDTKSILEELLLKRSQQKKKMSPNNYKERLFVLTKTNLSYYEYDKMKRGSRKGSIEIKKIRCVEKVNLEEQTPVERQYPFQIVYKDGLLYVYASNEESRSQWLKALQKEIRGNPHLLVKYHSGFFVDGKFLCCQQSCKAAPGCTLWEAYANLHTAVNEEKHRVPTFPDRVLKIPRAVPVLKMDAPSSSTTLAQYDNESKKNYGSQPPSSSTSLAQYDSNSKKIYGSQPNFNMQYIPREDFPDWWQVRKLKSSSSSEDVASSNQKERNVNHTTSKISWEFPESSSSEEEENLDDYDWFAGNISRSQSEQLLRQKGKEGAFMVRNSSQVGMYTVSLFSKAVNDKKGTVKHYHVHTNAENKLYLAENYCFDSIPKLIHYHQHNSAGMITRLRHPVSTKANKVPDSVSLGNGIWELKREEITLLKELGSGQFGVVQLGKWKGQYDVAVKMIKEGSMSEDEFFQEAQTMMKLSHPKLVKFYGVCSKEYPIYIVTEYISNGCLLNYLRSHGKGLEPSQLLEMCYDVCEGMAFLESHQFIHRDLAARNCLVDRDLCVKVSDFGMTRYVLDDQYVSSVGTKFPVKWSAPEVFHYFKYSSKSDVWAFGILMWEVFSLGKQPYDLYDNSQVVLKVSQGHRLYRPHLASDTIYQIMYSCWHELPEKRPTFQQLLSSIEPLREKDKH

[4] = molecular target: T2, His-tagged BTK kinase domain (Homo sapiens, UniProt Q06187); experiment: Mass spectral analysis of tryptic digest of His-tagged BTK kinase domain (MSMS of modified peptides); type: binding; details: 10 μM compound, 45 min; for C481 labelled by test compound (tryptic digest peptide): cysteine 481
T2 construct: pET-28b(+)-BTK (402-655) vector; made in house; host or cells: E. coli BL21 (DE3) RILP
Description: A protein kinase that is inhibited by compound and/or pharmaceutically acceptable salt of the present disclosure may be subjected to mass spectral analysis to assess the formation of permanent, irreversible covalent adducts. […] Such methods identify permanent, irreversible covalent protein adducts by observing a mass peak that corresponds to the mass of a control sample plus the mass of an irreversible adduct.
The starter cultures were incubated with shaking at 37° C. until cloudy and used to inoculate 1 L of Super broth containing same concentrations of kanamycin and chloramphenicol, 10 mM MgSO4, 5 mM CaCl2), and 0.1% (w/v) glucose. The cultures were incubated under similar conditions to an OD600 of 0.6-0.8. Before induction with 0.5 mM IPTG, the temperature was reduced to 16° C. The cells were harvested by centrifugation following approximately 18 h and frozen in a −80° C. freezer until use.
Cells were thawed in lysis buffer (50 mM HEPES [pH 7.6], 300 mM NaCl, 10 mM MgCl2, 10% [v/v] glycerol, 0.1 mg/mL lysozyme, 50 μg/mL DNase I, and protease inhibitors). Cells were sonicated (30 s on, 60 s off) for 3 repeating cycles. The cell lysates were cleared by centrifugation at 4° C. […] This eluant was cleaved with Ulp1 protease and loaded onto a S200 Superdex FPLC column (GE healthcare) pre-equilibrated with 20 mM HEPES pH 7.4, 150 mM NaCl, and 10% [v/v] glycerol. Pure fractions of His-tagged BTK kinase domain, as judged by SDS-PAGE, were pooled and concentrated using Amicon 10 kDa cutoff concentrators and after aliquoting stored at −80 C until use.
After the incubation time, the reactions were quenched by acetone precipitation and the pellet was re-dissolved in 8 M Urea. The protein was then reduced (5 mM DTT), alkylated (15 mM iodoacetamide) and digested (1 μg trypsin at 37° C. for 4 hours). The digest was then stopped by addition of trifluoroacetic acid, and peptides were removed from gel band by sonicating with increasing amounts of acetonitrile (0%, 30%, & 60%). Peptides were then purified using C18 ziptips, spotted on the MALDI target plate with a-cyano-4-hydroxycinnamic acid as the desorption matrix (10 mg/ml in 0.1% TFA: Acetonitrile 50:50), and analyzed in reflectron mode.

[5] = molecular target: FGFR1 (Homo sapiens, UniProt P11362); experiment: In vitro kinase inhibition studies (Table 9), FGFR1; type: biochemical
[6] = molecular target: FGFR4 (Homo sapiens, UniProt P22455); experiment: In vitro kinase inhibition studies (Table 9), FGFR4; type: biochemical
[7] = system: RL cells; experiment: IC50 of Ibrutinib analogs against human cancer cells, RL cells (Table 14); type: cell-based; details: Homo sapiens, RL, Table 14; RL human non-Hodgkin's lymphoma B cell line; read-out: RL (IC50)
Description: 1×10^4 cells (NHF cells)/well are plated in 96-well assay plates in culture medium. […] After 24 hrs, test compounds and vehicle controls are added to appropriate wells so the final volume is 100p in each well. The cells are cultured for the desired test exposure period (72 hrs) at 37° C. and 5% CO2. The assay plates are removed from 37° C. incubator and 20 μl/well of CellTiter-Blue® Reagent is added. The plates are incubated using standard cell culture conditions for 1-4 hours and the plates are shaken for 10 seconds and record fluorescence at 560/590 nm. […] Therapeutic index=(IC50 human fibroblasts/IC50 […] )

[8] = 10 μM His-BTK KD, tryptic digest MSMS

T2 sequence (Q06187 402-655): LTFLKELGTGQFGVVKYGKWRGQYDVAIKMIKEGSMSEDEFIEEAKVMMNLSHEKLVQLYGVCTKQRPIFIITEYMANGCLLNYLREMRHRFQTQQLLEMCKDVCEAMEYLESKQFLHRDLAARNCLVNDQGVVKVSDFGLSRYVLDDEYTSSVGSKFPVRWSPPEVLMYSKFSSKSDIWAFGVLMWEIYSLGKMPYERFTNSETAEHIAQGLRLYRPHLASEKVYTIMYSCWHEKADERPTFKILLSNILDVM
Sequence of FGFR1 (P11362 22-822, species assumed): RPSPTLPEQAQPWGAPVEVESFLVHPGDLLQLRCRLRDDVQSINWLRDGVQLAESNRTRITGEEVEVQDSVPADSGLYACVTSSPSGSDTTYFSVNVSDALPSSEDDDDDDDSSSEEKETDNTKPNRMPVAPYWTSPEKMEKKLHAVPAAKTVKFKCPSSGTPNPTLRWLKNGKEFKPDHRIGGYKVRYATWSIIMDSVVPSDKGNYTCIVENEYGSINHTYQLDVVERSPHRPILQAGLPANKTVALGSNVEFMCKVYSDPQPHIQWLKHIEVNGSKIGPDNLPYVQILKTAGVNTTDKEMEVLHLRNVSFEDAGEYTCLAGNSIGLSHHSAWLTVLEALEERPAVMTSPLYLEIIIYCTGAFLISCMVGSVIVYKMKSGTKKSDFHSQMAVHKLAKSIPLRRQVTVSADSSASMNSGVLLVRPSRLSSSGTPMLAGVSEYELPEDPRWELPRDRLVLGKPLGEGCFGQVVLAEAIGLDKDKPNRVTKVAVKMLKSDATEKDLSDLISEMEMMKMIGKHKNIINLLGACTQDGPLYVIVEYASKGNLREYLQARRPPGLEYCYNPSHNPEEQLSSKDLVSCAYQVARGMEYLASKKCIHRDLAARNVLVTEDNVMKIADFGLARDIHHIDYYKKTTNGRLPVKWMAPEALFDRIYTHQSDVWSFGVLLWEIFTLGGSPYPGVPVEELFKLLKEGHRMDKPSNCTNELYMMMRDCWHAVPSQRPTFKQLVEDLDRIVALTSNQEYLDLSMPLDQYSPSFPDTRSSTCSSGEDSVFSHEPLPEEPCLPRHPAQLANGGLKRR
Sequence of FGFR4 (P22455 22-802, species assumed): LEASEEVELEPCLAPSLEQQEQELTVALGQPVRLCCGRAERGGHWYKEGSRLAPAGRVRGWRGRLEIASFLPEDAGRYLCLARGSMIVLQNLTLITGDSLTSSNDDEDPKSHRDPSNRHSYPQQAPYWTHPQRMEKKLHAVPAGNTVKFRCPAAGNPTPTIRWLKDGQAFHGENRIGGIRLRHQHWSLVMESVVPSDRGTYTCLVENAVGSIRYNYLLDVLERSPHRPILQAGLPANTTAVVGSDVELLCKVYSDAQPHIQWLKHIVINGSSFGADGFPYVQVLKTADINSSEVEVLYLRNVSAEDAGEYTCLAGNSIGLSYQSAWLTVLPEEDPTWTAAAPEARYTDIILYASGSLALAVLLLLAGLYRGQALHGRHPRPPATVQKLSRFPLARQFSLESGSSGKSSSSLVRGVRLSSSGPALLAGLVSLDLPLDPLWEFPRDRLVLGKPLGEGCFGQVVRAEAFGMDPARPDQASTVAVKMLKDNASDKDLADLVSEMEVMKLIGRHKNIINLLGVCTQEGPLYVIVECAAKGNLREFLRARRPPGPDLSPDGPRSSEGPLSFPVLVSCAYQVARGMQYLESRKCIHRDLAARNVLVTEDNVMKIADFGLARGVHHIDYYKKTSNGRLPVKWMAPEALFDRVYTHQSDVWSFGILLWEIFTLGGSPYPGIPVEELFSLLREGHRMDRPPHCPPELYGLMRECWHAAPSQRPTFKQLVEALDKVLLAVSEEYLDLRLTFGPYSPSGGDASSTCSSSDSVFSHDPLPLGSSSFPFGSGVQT

SMILES: O=S(=O)(Nc1ccc(Oc2ccccc2)cc1)c1c(F)c(F)c(F)c(F)c1F [Compound 4-2, 2,3,4,5,6-pentafluoro-N-(4-phenoxyphenyl)benzenesulfonamide]
IC50 [1]: 10 to 100 µM
IC50 [2]: 10 to 100 µM

SMILES: N#Cc1ccc(NS(=O)(=O)c2c(F)c(F)c(F)c(F)c2F)cc1F [Compound 4-5, N-(4-cyano-3-fluorophenyl)-2,3,4,5,6-pentafluorobenzenesulfonamide]
IC50 [1]: 10 to 100 µM

SMILES: COCCOc1ccc(Nc2ncc(F)c(NCCNS(=O)(=O)c3c(F)c(F)c(F)c(F)c3F)n2)cc1 [Compound 5-13, 2,3,4,5,6-pentafluoro-N-(2-((5-fluoro-2-((4-(2-methoxyethoxy)phenyl)amino)pyrimidin-4-yl)amino)ethyl)benzenesulfonamide]
IC50 [5]: > 2 µM
amino acid of BTK modified by one equivalent of compound [4, 8]: Cys-481
observed mass of modified tryptic peptide [4, 8]: 3059.4 Da
C481 labelled by test compound (tryptic digest peptide) ([4]; 10 μM BTK KD): ✓
IC50 [6]: > 2 µM

SMILES: COCCOc1ccc(Nc2ncc(F)c(Nc3ccc(NS(=O)(=O)c4c(F)c(F)c(F)c(F)c4F)cc3)n2)cc1 [Compound 5-14, 2,3,4,5,6-pentafluoro-N-(4-((5-fluoro-2-((4-(2-methoxyethoxy)phenyl)amino)pyrimidin-4-yl)amino)phenyl)benzenesulfonamide]
IC50 [5]: 0.01 to 0.3 µM
IC50 [6]: 0.01 to 0.3 µM

SMILES: COCCOc1ccc(Nc2ncc(F)c(Nc3cccc(N(C)S(=O)(=O)c4c(F)c(F)c(F)c(F)c4F)c3)n2)cc1 [Compound 5-17, 2,3,4,5,6-pentafluoro-N-(3-((5-fluoro-2-((4-(2-methoxyethoxy)phenyl)amino)pyrimidin-4-yl)amino)phenyl)-N-methylbenzenesulfonamide]
IC50 [3]: 0.0001 to 0.01 µM

More lines, now with the values ahead:

IC50 [3]: 0.0001 to 0.01 µM
SMILES: Nc1ncnc2c1c(-c1ccc(Oc3ccccc3)cc1)nn2[C@H]1CCCN(S(=O)(=O)c2c(F)c(F)c(F)c(F)c2F)C1 [Compound 5-2, (S)-1-(1-((perfluorophenyl)sulfonyl)piperidin-3-yl)-3-(4-phenoxyphenyl)-1H-pyrazolo[3,4-d]pyrimidin-4-amine]

IC50 [3]: 0.0001 to 0.01 µM
C481 labelled by test compound (tryptic digest peptide) ([4]; 10 μM BTK KD): ✓
C527 labelled by test compound (tryptic digest peptide) ([4]; cysteine 527, 10 μM BTK KD): ✓
SMILES: Nc1ncnc2c1c(-c1ccc(Oc3ccccc3)cc1)nn2CCNS(=O)(=O)c1c(F)c(F)c(F)c(F)c1F [Compound 5-3, N-[2-[4-amino-3-(4-phenoxyphenyl)pyrazolo[3,4-d]pyrimidin-1-yl]ethyl]-2,3,4,5,6-pentafluoro-benzenesulfonamide]

IC50 [3]: 0.01 to 0.3 µM
IC50 [7]: 1.64 µM
SMILES: Nc1ncnc2c1c(-c1ccc(Oc3ccccc3)cc1)nn2S(=O)(=O)c1c(F)c(F)c(F)c(F)c1F [Compound 5-19, 1-((perfluorophenyl)sulfonyl)-3-(4-phenoxyphenyl)-1H-pyrazolo[3,4-d]pyrimidin-4-amine]
